Data as given in patent US6914045B2, “Glycopeptide antibiotics” (Wyeth Holdings Corporation, priority 2001, dated 2005).

Experiments:
Streptococcus sp. = assay: in vitro antibacterial evaluation, MIC by broth dilution; format: cell-based; settings: broth dilution, 18 hours at 35° C.
Method in brief: (§1)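 MIC = lowest antibiotic concentration preventing visible growth; inoculum 5×10^5 CFU/mL; drug range 64-0.06 μg/mL; Muller-Hinton II […]; NCCLS M7-A2 guidance.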

Enterococcus sp. = assay: as above; format: cell-based; settings: broth dilution, 18 hours at 35° C.
Method in brief: as §1

Escherichia coli = assay: as above; format: cell-based; settings: 18 hours at 35° C.
Method in brief: as §1

Staphylococcus sp. = assay: as above; format: cell-based; settings: broth dilution, 18 hours at 35° C.
Method in brief: as §1

[1] = clinical pathology (serum clinical chemistry) in mice; format: in vivo; settings: CD-1 mice, 20 mg/kg intravenously daily for 9 days, sera day 10
Protocol: 20-day-old CD-1 mice were divided into a vehicle control group (5 mice) and a treatment group (5 mice). Samples of glycopeptide antibiotics were administered at 20 mg/kg intravenously daily for 9 days.

[2] = anatomic pathology (histopathology of heart and kidney) in mice; format: in vivo; settings: CD-1 mice, 20 mg/kg intravenously daily for 9 days, necropsy day 10, microscopic histopathology
Protocol: Samples of tissues from necropsied mice were formalin-fixed, paraffin-embedded, sectioned, stained with hematoxylin and eosin, and examined microscopically. Histopathologic findings were recorded. These findings were subjectively graded on a scale corresponding to slight, mild, moderate, marked and severe as compared to untreated controls.

CC(c1ccccc1)C1NC(=O)CNC(=O)C(CO)NC(=O)C(C(O)C2CNC(=N)N2C2OC(CO)C(O)C(O)C2O)NC(=O)C(C(O)C2CNC(=N)N2)NC(=O)C(Cc2ccc(OC3OC(CO)C(OC4OC5COC(Cc6ccccc6)OC5C(O)C4O)C(O)C3O)cc2)NC1=O (stereo not drawn) [Example 102, Cyclo[glycyl-β-methylphenylalanyl-O-[4-O-(4,6-O-phenethylidenehexopyranosyl)-hexopyranosyl]tyrosyl-3-(2-iminoimidazolidin-4-yl)seryl-3-(3-hexopranosyl-2-iminoimidazolidin-4-yl)serylseryl]]
<0.06 µg/mL: MIC Streptococcus pneumoniae (ATCC 6301) (Streptococcus sp.; Streptococcus pneumoniae (ATCC 6301)) | MIC Streptococcus pneumoniae (GC 1894) (Streptococcus sp.; Streptococcus pneumoniae (GC 1894)) | MIC Streptococcus pneumoniae (ATCC 6301) (Streptococcus sp.; strain ATCC 6301) | MIC Streptococcus pneumoniae (GC 1894) (Streptococcus sp.; strain GC 1894)
2 µg/mL: MIC Staphylococcus aureus (GC 1131) (Staphylococcus sp.) | MIC Staphylococcus aureus (GC 1131) (Staphylococcus sp.; strain GC 1131)
2 to 4 µg/mL: MIC Enterococcus avium (GC 4558) (Enterococcus sp.; Enterococcus avium (GC 4558)) | MIC Enterococcus faecalis (ATCC 29212) (Enterococcus sp.; Enterococcus faecalis (ATCC 29212)) | MIC Enterococcus faecalis (GC 2242) (Enterococcus sp.; Enterococcus faecalis (GC 2242)) | MIC Enterococcus faecalis (GC 2691) (Enterococcus sp.; Enterococcus faecalis (GC 2691)) | MIC Enterococcus faecalis (GC 3059) (Enterococcus sp.; Enterococcus faecalis (GC 3059)) | MIC Enterococcus faecalis (GC 4552) (Enterococcus sp.; Enterococcus faecalis (GC 4552)) | MIC Enterococcus faecalis (GC 4553) (Enterococcus sp.; Enterococcus faecalis (GC 4553)) | MIC Enterococcus faecalis (GC 4554) (Enterococcus sp.; Enterococcus faecalis (GC 4554)) | MIC Enterococcus faecalis (GC 6189) (Enterococcus sp.; Enterococcus faecalis (GC 6189)) | MIC Enterococcus faecium (GC 2243) (Enterococcus sp.; Enterococcus faecium (GC 2243)) | MIC Enterococcus faecium (GC 4556) (Enterococcus sp.; Enterococcus faecium (GC 4556)) | MIC Enterococcus faecalis (ATCC 29212) (Enterococcus sp.; strain ATCC 29212) | MIC Enterococcus faecalis (GC 2242) (Enterococcus sp.; strain GC 2242) | MIC Enterococcus faecium (GC 2243) (Enterococcus sp.; strain GC 2243) | MIC Enterococcus faecalis (GC 2691) (Enterococcus sp.; strain GC 2691) | MIC Enterococcus faecalis (GC 3059) (Enterococcus sp.; strain GC 3059) | MIC Enterococcus faecalis (GC 4552) (Enterococcus sp.; strain GC 4552) | MIC Enterococcus faecalis (GC 4553) (Enterococcus sp.; strain GC 4553) | MIC Enterococcus faecalis (GC 4554) (Enterococcus sp.; strain GC 4554) | MIC Enterococcus faecium (GC 4556) (Enterococcus sp.; strain GC 4556) | MIC Enterococcus avium (GC 4558) (Enterococcus sp.; strain GC 4558) | MIC Enterococcus faecalis (GC 6189) (Enterococcus sp.; strain GC 6189)
0.5 µg/mL: MIC Coagulase Negative Staphylococcus (GC 6257) (Staphylococcus sp.) | MIC Coagulase Negative Staphylococcus (GC 6257) (Staphylococcus sp.; strain GC 6257)
+100%: Clinical Chemistry (Day 10) % of Control, Creatinine [1]
+249%: Clinical Chemistry (Day 10) % of Control, BUN [1]
+340%: Clinical Chemistry (Day 10) % of Control, AST [1]
+++: Anatomical Pathology (Day 10), Heart [2] | Anatomical Pathology (Day 10), Kidney [2]
1 to 2 µg/mL: MIC Enterococcus faecium (GC 4557) (Enterococcus sp.; Enterococcus faecium (GC 4557)) | MIC Enterococcus faecium (GC 4557) (Enterococcus sp.; strain GC 4557) | MIC Coagulase Negative Staphylococcus (GC 4551) (Staphylococcus sp.) | MIC Staphylococcus aureus (ATCC 29213) (Staphylococcus sp.) | MIC Staphylococcus aureus (GC 3053) (Staphylococcus sp.) | MIC Staphylococcus aureus (GC 4541) (Staphylococcus sp.) | MIC Staphylococcus aureus (GC 4544) (Staphylococcus sp.) | MIC Coagulase Negative Staphylococcus (GC 4551) (Staphylococcus sp.; strain GC 4551) | MIC Staphylococcus aureus (ATCC 29213) (Staphylococcus sp.; strain ATCC 29213) | MIC Staphylococcus aureus (GC 3053) (Staphylococcus sp.; strain GC 3053) | MIC Staphylococcus aureus (GC 4541) (Staphylococcus sp.; strain GC 4541) | MIC Staphylococcus aureus (GC 4544) (Staphylococcus sp.; strain GC 4544)
1 µg/mL: MIC Coagulase Negative Staphylococcus (GC 4547) (Staphylococcus sp.) | MIC Staphylococcus aureus (GC 3051) (Staphylococcus sp.) | MIC Coagulase Negative Staphylococcus (GC 4547) (Staphylococcus sp.; strain GC 4547) | MIC Staphylococcus aureus (GC 3051) (Staphylococcus sp.; strain GC 3051)
0.5 to 1 µg/mL: MIC Escherichia coli (GC 4560) (Escherichia coli; strain GC 4560) | MIC Coagulase Negative Staphylococcus (GC 4548) (Staphylococcus sp.) | MIC Coagulase Negative Staphylococcus (GC 4549) (Staphylococcus sp.) | MIC Staphylococcus aureus (GC 4542) (Staphylococcus sp.) | MIC Staphylococcus aureus (GC 4545) (Staphylococcus sp.) | MIC Staphylococcus aureus-SMITH (GC 4543) (Staphylococcus sp.) | MIC Staphylococcus haemolyticus (GC 4546) (Staphylococcus sp.) | MIC Staphylococcus haemolyticus (GC 4546) (Staphylococcus sp.; strain GC 4546) | MIC Coagulase Negative Staphylococcus (GC 4548) (Staphylococcus sp.; strain GC 4548) | MIC Coagulase Negative Staphylococcus (GC 4549) (Staphylococcus sp.; strain GC 4549) | MIC Staphylococcus aureus-SMITH (GC 4543) (Staphylococcus sp.; strain SMITH GC 4543) | MIC Staphylococcus aureus (GC 4542) (Staphylococcus sp.; strain GC 4542) | MIC Staphylococcus aureus (GC 4545) (Staphylococcus sp.; strain GC 4545)
<0.12 to 0.25 µg/mL: MIC Streptococcus agalactiae (GC 4564) (Streptococcus sp.; Streptococcus agalactiae (GC 4564)) | MIC Streptococcus pyogenes (GC 4563) (Streptococcus sp.; Streptococcus pyogenes (GC 4563)) | MIC Streptococcus pyogenes (GC 4563) (Streptococcus sp.; strain GC 4563) | MIC Streptococcus agalactiae (GC 4564) (Streptococcus sp.; strain GC 4564)
16 to 64 µg/mL: MIC Escherichia coli (ATCC 25922) (Escherichia coli; strain ATCC 25922)
+672%: Clinical Chemistry (Day 10) % of Control, ALT [1]
16 to 32 µg/mL: MIC Escherichia coli (GC 4559) (Escherichia coli; strain GC 4559)
